Test results taken from the NIST ThermoML archive (doi:10.1016/j.jct.2007.11.009).

Experiment: xn = mol fraction of the nth substance listed
Conditions: Liquid, Vibrating tube method

CCCCCCCC [octane] + c1ccccc1
mass density [kg/m3]
Conditions | x1 = 0.1097 | x1 = 0.2036 | x1 = 0.2984 | x1 = 0.4069 | x1 = 0.5027 | x1 = 0.5904 | x1 = 0.6989 | x1 = 0.7964 | x1 = 0.904 | x1 = 1
318.15 K, 100 kPa | 818.2 | 794.1 | 773.6 | 753.6 | 738.1 | 725.8 | 712.4 | 701.5 | 691.1 | 682.8
318.15 K, 2130 kPa | 820.2 | 796.1 | 775.6 | 755.6 | 740.1 | 727.8 | 714.4 | 703.5 | 693.1 | 684.7
318.15 K, 4150 kPa | 822.1 | 798.1 | 777.6 | 757.6 | 742.1 | 729.8 | 716.4 | 705.5 | 695.1 | 686.7
318.15 K, 6180 kPa | 824 | 800 | 779.5 | 759.5 | 744 | 731.7 | 718.3 | 707.4 | 696.9 | 688.6
318.15 K, 8210 kPa | 825.8 | 801.9 | 781.4 | 761.4 | 745.9 | 733.6 | 720.2 | 709.3 | 698.8 | 690.4
318.15 K, 10230 kPa | 827.7 | 803.7 | 783.3 | 763.3 | 747.8 | 735.5 | 722 | 711.1 | 700.6 | 692.2
318.15 K, 11250 kPa | 828.6 | 804.6 | 784.2 | 764.2 | 748.7 | 736.4 | 722.9 | 712 | 701.5 | 693.1
318.15 K, 12260 kPa | 829.4 | 805.5 | 785.1 | 765.1 | 749.6 | 737.3 | 723.8 | 713 | 702.4 | 694
318.15 K, 14290 kPa | 831.2 | 807.3 | 786.8 | 766.9 | 751.4 | 739.1 | 725.6 | 714.7 | 704.2 | 695.7
318.15 K, 16310 kPa | 832.9 | 809 | 788.6 | 768.6 | 753.2 | 740.8 | 727.3 | 716.4 | 705.9 | 697.4
318.15 K, 18340 kPa | 834.6 | 810.7 | 790.3 | 770.3 | 754.9 | 742.5 | 729 | 718.1 | 707.5 | 699.1
318.15 K, 20370 kPa | 836.2 | 812.4 | 792 | 772 | 756.6 | 744.2 | 730.7 | 719.8 | 709.2 | 700.7
318.15 K, 22390 kPa | 837.9 | 814.1 | 793.6 | 773.7 | 758.2 | 745.8 | 732.3 | 721.4 | 710.8 | 702.3
318.15 K, 24420 kPa | 839.5 | 815.7 | 795.3 | 775.3 | 759.8 | 747.4 | 733.9 | 723 | 712.4 | 703.9
318.15 K, 26450 kPa | 841 | 817.3 | 796.8 | 776.9 | 761.4 | 749 | 735.5 | 724.5 | 713.9 | 705.4
318.15 K, 28470 kPa | 842.6 | 818.8 | 798.5 | 778.5 | 763 | 750.6 | 737 | 726.1 | 715.4 | 706.9
318.15 K, 29490 kPa | 843.3 | 819.6 | 799.2 | 779.2 | 763.7 | 751.4 | 737.8 | 726.8 | 716.1 | 707.6
318.15 K, 30500 kPa | 844.1 | 820.4 | 799.9 | 780 | 764.5 | 752.1 | 738.5 | 727.5 | 716.9 | 708.3
318.15 K, 32530 kPa | 845.6 | 821.9 | 801.4 | 781.5 | 766 | 753.6 | 740 | 729 | 718.3 | 709.7
318.15 K, 34550 kPa | 847.1 | 823.4 | 802.9 | 783 | 767.5 | 755.1 | 741.5 | 730.5 | 719.7 | 711.2
318.15 K, 36580 kPa | 848.5 | 824.8 | 804.4 | 784.4 | 768.9 | 756.5 | 742.9 | 731.9 | 721.1 | 712.5
318.15 K, 38600 kPa | 850 | 826.3 | 805.8 | 785.9 | 770.4 | 757.9 | 744.3 | 733.3 | 722.5 | 713.9
318.15 K, 39620 kPa | 850.7 | 827 | 806.5 | 786.6 | 771.1 | 758.6 | 745 | 734 | 723.2 | 714.6
328.15 K, 100 kPa | 807.9 | 784.5 | 764.1 | 744.3 | 729.2 | 717 | 704 | 693.3 | 683 | 674.5
328.15 K, 2130 kPa | 810 | 786.7 | 766.2 | 746.5 | 731.4 | 719.1 | 706.1 | 695.5 | 685.1 | 676.6
328.15 K, 4150 kPa | 812.1 | 788.7 | 768.3 | 748.6 | 733.5 | 721.2 | 708.2 | 697.6 | 687.2 | 678.7
328.15 K, 6180 kPa | 814.1 | 790.8 | 770.4 | 750.7 | 735.6 | 723.3 | 710.3 | 699.7 | 689.2 | 680.7
328.15 K, 8210 kPa | 816.1 | 792.8 | 772.4 | 752.7 | 737.6 | 725.3 | 712.3 | 701.7 | 691.2 | 682.6
328.15 K, 10230 kPa | 818 | 794.7 | 774.4 | 754.7 | 739.6 | 727.3 | 714.3 | 703.7 | 693.2 | 684.6
328.15 K, 11250 kPa | 818.9 | 795.7 | 775.3 | 755.6 | 740.6 | 728.3 | 715.2 | 704.6 | 694.1 | 685.5
328.15 K, 12260 kPa | 819.9 | 796.6 | 776.3 | 756.6 | 741.5 | 729.2 | 716.2 | 705.6 | 695 | 686.4
328.15 K, 14290 kPa | 821.7 | 798.5 | 778.2 | 758.5 | 743.4 | 731.1 | 718.1 | 707.4 | 696.9 | 688.3
328.15 K, 16310 kPa | 823.6 | 800.4 | 780.1 | 760.4 | 745.3 | 733 | 719.9 | 709.3 | 698.7 | 690.1
328.15 K, 18340 kPa | 825.3 | 802.1 | 781.9 | 762.2 | 747.1 | 734.8 | 721.7 | 711.2 | 700.5 | 691.8
328.15 K, 20370 kPa | 827.1 | 803.9 | 783.6 | 763.9 | 748.9 | 736.6 | 723.4 | 713 | 702.2 | 693.6
328.15 K, 22390 kPa | 828.8 | 805.7 | 785.4 | 765.7 | 750.6 | 738.3 | 725.1 | 714.5 | 703.9 | 695.2
328.15 K, 24420 kPa | 830.5 | 807.4 | 787.1 | 767.4 | 752.3 | 740 | 726.8 | 716.2 | 705.6 | 696.9
328.15 K, 26450 kPa | 832.2 | 809.1 | 788.8 | 769.1 | 754 | 741.6 | 728.5 | 717.8 | 707.2 | 698.5
328.15 K, 28470 kPa | 833.8 | 810.7 | 790.4 | 770.7 | 755.6 | 743.2 | 730.1 | 719.4 | 708.8 | 700
328.15 K, 29490 kPa | 834.6 | 811.5 | 791.2 | 771.5 | 756.4 | 744 | 730.9 | 720.1 | 709.6 | 700.8
328.15 K, 30500 kPa | 835.4 | 812.3 | 792 | 772.3 | 757.2 | 744.8 | 731.7 | 720.9 | 710.3 | 701.6
328.15 K, 32530 kPa | 837 | 813.9 | 793.6 | 773.9 | 758.8 | 746.4 | 733.2 | 722.5 | 711.9 | 703
328.15 K, 34550 kPa | 838.5 | 815.5 | 795.2 | 775.4 | 760.3 | 747.9 | 734.7 | 724 | 713.4 | 704.5
328.15 K, 36580 kPa | 840 | 817 | 796.7 | 777 | 761.8 | 749.4 | 736.2 | 725.5 | 714.8 | 706
328.15 K, 38600 kPa | 841.5 | 818.5 | 798.2 | 778.4 | 763.3 | 750.9 | 737.7 | 726.9 | 716.2 | 707.4
328.15 K, 39620 kPa | 842.3 | 819.1 | 798.9 | 779.2 | 764 | 751.6 | 738.4 | 727.6 | 716.9 | 708.1
